# Reference: PMC3050433, “The effects of maribavir on the autophosphorylation of ganciclovir resistant mutants of the cytomegalovirus UL97 protein” (Herpesviridae, 2010)
# Biological target: T1, UL97 V665I (Human cytomegalovirus, UniProt Q68101, V665I)
# T1 construct: PCR reaction to generate the full length UL97; honey bee melittin secretion signal (N); made in house; host or cells: Sf21 insect cells, recombinant baculovirus (pMelBac C)
# T1 sequence (Q68101 1-707 V665I): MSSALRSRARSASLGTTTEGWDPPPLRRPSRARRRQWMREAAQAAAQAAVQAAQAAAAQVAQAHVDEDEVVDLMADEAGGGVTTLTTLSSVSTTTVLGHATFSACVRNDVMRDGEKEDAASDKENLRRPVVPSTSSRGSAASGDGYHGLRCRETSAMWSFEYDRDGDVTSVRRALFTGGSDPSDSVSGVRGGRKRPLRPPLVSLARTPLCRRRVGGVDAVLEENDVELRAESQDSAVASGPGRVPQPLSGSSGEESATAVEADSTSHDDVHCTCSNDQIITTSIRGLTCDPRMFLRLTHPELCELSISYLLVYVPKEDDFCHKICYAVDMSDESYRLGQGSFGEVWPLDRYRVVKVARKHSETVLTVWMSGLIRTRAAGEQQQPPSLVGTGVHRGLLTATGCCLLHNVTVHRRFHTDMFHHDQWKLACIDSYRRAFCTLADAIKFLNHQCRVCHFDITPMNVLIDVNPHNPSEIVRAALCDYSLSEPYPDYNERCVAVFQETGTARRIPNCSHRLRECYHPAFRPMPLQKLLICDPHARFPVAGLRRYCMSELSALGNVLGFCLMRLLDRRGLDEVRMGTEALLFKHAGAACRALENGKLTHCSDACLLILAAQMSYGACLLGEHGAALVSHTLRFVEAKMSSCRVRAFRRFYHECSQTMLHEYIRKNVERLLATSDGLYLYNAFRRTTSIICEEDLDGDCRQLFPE
# Experiment: UL97 autophosphorylation protein kinase assay, V665I
# Type: biochemical
# Conditions: V665I mutant
# Protocol: Analysis of the autophosphorylation of wild type and mutant UL97 protein species was performed by a standard protein kinase assay as previously described (46). Briefly, purified protein was added to 2× protein kinase buffer (100 mM Tris HCl, pH9.0, 20 mM MgCl2, 10 μM ATP, 4 mM DTT, 2 M NaCl) and 370 KBq [γ^32P] ATP (Amersham), made up to 20 μl with SDW and incubated at 37°C. The reactions were terminated by the addition of 2× SDS sample buffer followed by boiling for 3 minutes. The amount of radiolabelled phosphate incorporated by autophosphorylation was analysed by SDS-PAGE and measured using the Biorad Mulitanalyst. The protein kinase assays were initially performed for 2 to 60 minutes to determine the maximum rate of phosphate incorporation, all assays were then performed at the maximum rate which equated to 5 minutes.
# Enzyme kinetic analysis was performed on the purified wild type and mutant UL97 protein species as above using increasing concentrations of ATP (2 μM to 20 μM). The amount of incorporated radiolabelled phosphate was plotted against the concentration of ATP in a Lineweaver Burke plot to determine the Km for ATP for each UL97 species. […]
smiles,measurement,value
"CC(C)Nc1nc2cc(Cl)c(Cl)cc2n1[C@H]1O[C@@H](CO)[C@H](O)[C@@H]1O [maribavir, 5,6-dichloro-2-(isopropylamino)-1-beta-L-ribofuranosyl-1H-benzimidazole]",IC50,30 nM
